According to patent US9724331B2, “Use of maleimide derivatives for preventing and treating leukemia” (CENTOGENE AG, priority 2012, dated 2017):
Entries after “also recorded” stand apart in the source; their conditions may differ.

Assays:
[1] = system: Jurkat cells; assay: Cell cycle analysis, propidium iodide staining, flow cytometry; type: cell-based, human; details: 1 μM PDA-66, mean±SD
Description: (§1) After treatment cells were harvested and washed twice in PBS. Cells were fixed with 70% ethanol and incubated with 1 mg/ml Ribonuclease A (Sigma-Aldrich, St. Louis, USA) for 30 min at 37° C. After washing the cells twice in PBS, they were stained with PI (50 μg/ml) and DNA content was determined by flow cytometry. All cell lines were incubated with PDA-66 and cell cycle distribution was determined using Propidium iodide staining.
(§2) The treatment with PDA-66 influenced the four cell lines differently. […] G2 arrest could be detected in RS4;11 and Molt-4 cells after 48 h of treatment. Treatment of Jurkat cells induced a decrease of cells in G0/G1 phase in favor of cells in S phase.

[2] = system: SEM cells; assay: as above; type: cell-based, human
Description: as §1, §2

[3] = system: Molt-4 cells; assay: as above; type: cell-based, human
Description: as §1, §2

[4] = system: RS4;11 cells; assay: as above; type: cell-based, human
Description: as §1, §2

[5] = system: Jurkat cells; assay: May Grunwald-Giemsa staining, morphology by light microscopy; type: cell-based, human; details: 1 μM PDA-66, 48 h, vs. DMSO treated control cells
Description: (§3) Cytospins of SEM and Jurkat cells were stained with May Grunwald-Giemsa Staining after 48 h of incubation with 1 μM PDA-66 and DMSO, respectively
(§4) After treatment with 1 μM PDA-66 3×10^4 cells were brought onto object slides with Cytospin 3 centrifuge (Shandon, Frankfurt/Main, Germany). Subsequently cells were stained using May-Grunwald-Giemsa staining. Briefly, slides were incubated in May-Grunwald solution (Merck, Darmstadt, Germany) for 6 min, then washed with tap water, incubated in Giemsa solution (Merck, Darmstadt, Germany) for 20 min and washed in tap water again. After letting the slides dry the cells were analyzed by Nikon Eclipse E 600 light microscope and pictures were taken with NIS Elements software (Nikon, Düsseldorf, Germany).

[6] = system: SEM cells; assay: as above; type: cell-based, human; details: 1 μM PDA-66, 48 h, vs. DMSO treated control cells
Description: as §3, §4

[7] = molecular target: T1, recombinant human GSK3β (Homo sapiens, UniProt P49841); assay: GSK3β kinase activity assay (Kinase-Glo luminescence); type: biochemical
T1 construct: purchased Biomol, Hamburg, Germany
Description: The kinase activity assay was performed as previously described by Schmole et. al., 2010 (Schmole et al., 2010, Novel indolylmaleimide acts as GSK-3beta inhibitor in human neural progenitor cells. Bioorganic medicinal chemistry, 18, 6785-95). Briefly, recombinant human GSK3β (Biomol, Hamburg, Germany) was incubated with its substrate phospho glycogen synthase peptide 2 (pGS2) (Millipore, Billerica, USA), ATP (Cell Signaling, Frankfurt am Main, Germany) and different concentrations of PDA-66 for 30 min at 30° C. After addition of Kinase-Glo (Promega, Mannheim, Germany) and 10 min of incubation at room temperature the luminescence signal was measured with a Glomax 96 microplate reader (Promega). More specifically, recombinant human GSK3β was incubated with pGS2, ATP and different concentrations of PDA-66. […] In each experiment the concentrations of PDA-66 and the control were tested with 8 replicates. * Significant treatment effect vs. DMSO control, α=0.05.
The effect of PDA-66 on the enzyme activity of GSK3β was determined by incubation of the enzyme with a specific substrate, PDA-66 and ATP. With growing inhibitory effect there is more ATP present after the incubation. In a second step remaining ATP is converted to a luminescence signal, which is inversely proportional to the enzyme activity.

[8] = system: PI3K/Akt and Wnt/β-catenin pathway in Molt-4 cells; assay: Western blot, PI3K/Akt and Wnt/β-catenin pathway; type: cell-based, human; details: incubation of 4 and 24 h
Description: (§5) After treatment with PDA-66 and DMSO, respectively, cells were lyzed and protein expression analyzed with Western blot.
(§6) Protein extraction and Western blot was performed as described above. Following polyclonal antibodies were used: rabbit anti-cleaved caspase 3, rabbit anti-caspase 3, rabbit anti-cleaved PARP, rabbit anti-PARP, rabbit anti-cleaved caspase 7, rabbit anti-caspase 7, rabbit anti-pAktThr308, rabbit anti-pAktSer473, rabbit anti-Akt, rabbit anti-β-catenin, rabbit anti-pGSK3βSer9, rabbit anti-GSK3β, rabbit anti-p4EBP-1Ser65 and rabbit anti-4EBP-1 (all Cell Signaling Frankfurt/Main, Germany). Blots were incubated with mouse anti-GAPDH antibody (Invitrogen, Carlsbad, USA) as loading control.

[9] = system: PI3K/Akt and Wnt/β-catenin pathway in SEM cells; assay: Western blot, PI3K/Akt and Wnt/β-catenin pathway; type: cell-based, human
Description: as §5, §6

[10] = system: PI3K/Akt and Wnt/β-catenin pathway in Jurkat cells; assay: Western blot, PI3K/Akt and Wnt/β-catenin pathway; type: cell-based, human
Description: as §5, §6

[11] = system: PI3K/Akt and Wnt/β-catenin pathway in RS4;11 cells; assay: Western blot, PI3K/Akt and Wnt/β-catenin pathway; type: cell-based, human; details: incubation of 4 and 24 h
Description: as §5, §6

[12] = SEM cells shown exemplarily (FIG. 6A)
[13] = SEM cells, incubation of 4 and 24 h

T1 sequence (P49841 whole entry): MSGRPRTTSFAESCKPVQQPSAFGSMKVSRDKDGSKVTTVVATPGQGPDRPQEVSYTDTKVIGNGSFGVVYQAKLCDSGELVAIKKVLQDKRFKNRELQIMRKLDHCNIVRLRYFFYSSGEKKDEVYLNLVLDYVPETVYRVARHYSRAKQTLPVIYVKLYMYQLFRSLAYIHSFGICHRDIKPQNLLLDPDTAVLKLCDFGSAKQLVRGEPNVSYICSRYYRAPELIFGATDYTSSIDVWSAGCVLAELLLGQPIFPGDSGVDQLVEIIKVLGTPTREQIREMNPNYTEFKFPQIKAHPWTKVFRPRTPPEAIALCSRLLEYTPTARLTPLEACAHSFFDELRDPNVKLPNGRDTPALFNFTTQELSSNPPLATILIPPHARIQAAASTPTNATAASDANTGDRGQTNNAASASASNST

GSK3β enzyme activity ([7]; 10 μM PDA-66): seems to enhance enzyme activity
dose response relationship of GSK3β kinase activity ([7]; FIG. 1): bell shaped dose response relationship
SMILES: CC(=O)c1ccc(C2=C(c3c(C)[nH]c4ccccc34)C(=O)N(C)C2=O)cc1 [PDA-66, 3-(4-Acetylphenyl)-1-methyl-4-(2-methyl-1H-indol-3-yl)-1H-pyrrole-2,5-dione]
amount of cells in G0/G1 phase [1]: 47.3±4.3%
amount of cells in S phase [1]: 20.0±1.1%
amount of cells in G0/G1 ([2]; 0.5 μM PDA-66, 48 h, mean±SD): 69.3±2.7%
effect on cell cycle ([2]; 1 μM PDA-66, 48 h): did not affect the cell cycle significantly
amount of cells in G0/G1 phase ([3]; 1 μM PDA-66, 48 h, mean±SD): 45.0±7.3%
amount of cells in G2 phase ([3]; 1 μM PDA-66, 48 h, mean±SD): 41.0±5.8%
cells in G0/G1 phase ([3]; smaller dosages than 1 μM): significant increase
amount of cells in G0/G1 phase ([4]; 1 μM PDA-66, 48 h, mean±SD): 47.3±2.7%
amount of cells in G2 phase ([4]; 1 μM PDA-66, 48 h, mean±SD): 42.1±4.4%
cells in G0/G1 phase ([4]; smaller dosages than 1 μM): significant increase
morphology [5]: condensation of chromatin in the nucleus, karyorrhexis and an increasing amount of vacuoles and cell debris
morphology [6]: condensation of chromatin in the nucleus, karyorrhexis and an increasing amount of vacuoles and cell debris
GSK3β kinase activity ([7]; 0.25-1 μM PDA-66, 30 min at 30° C., vs. DMSO control): significantly inhibited; also recorded: inhibition of the enzyme
expression of p4EBP-1Ser65 [8]: increased expression; also recorded: increase
expression of total Akt [9, 12]: no influence
expression of total GSK3β [9, 12]: no influence
expression of β-catenin [9, 12]: no influence
pGSK3βSer9 ([9]; SEM cells, after 4 h): small decrease; also recorded: slight decrease
expression of p4EBP-1Ser65 [9, 13]: decrease
expression of total 4EBP-1 [9, 13]: decrease
pAktSer473 ([9]; SEM cells, incubation of 24 h): not confirmed by an increase; also recorded: not confirmed by a rise
pAktThr308 ([9]; SEM cells, incubation of 24 h): slight increase
expression of p4EBP-1Ser65 ([10]; incubation of 4 and 24 h): decrease
expression of total 4EBP-1 ([10]; incubation of 4 and 24 h): decrease
pAktSer473 ([10]; incubation of 24 h): not confirmed by a rise
pAktThr308 ([10]; incubation of 24 h): increase
expression of p4EBP-1Ser65 [11]: decrease
expression of total 4EBP-1 [11]: decrease
